Where two headings read alike, the source gives them in different places.
Legend:
[1] = test system: HT-1080 (human lung fibrosarcoma); test: Cytotoxicity, MTT assay, HT-1080; assay type: cell-based; details: Homo sapiens, read-out: HT-1080 IC50 (MTT)
Source text: (§1) Reduction takes place only when mitochondrial reductase enzymes are active, and therefore, conversion is directly related to the number of viable cells which can be quantified by the absorbance of the solution (between λ = 500 and 600 nm) using a spectrophotometer.

[2] = test system: HT-1080 (human lung fibrosarcoma); test: Cytotoxicity, crystal violet (CV) assay, HT-1080; details: Homo sapiens, HT-1080, 72 h, read-out: HT-1080 IC50 (CV)
Procedure: (§5) IC50 is the compound concentration (μg/ml) at which 50% of the cells die. […] CV staining can be used to quantify the total DNA of the remaining population and thus is used to determine the number of live cells based on the concentration of the dye which remains after staining.
(§6) Tumor cell lines HT-1080 (human connective tissue fibrosarcoma, ATCC® CCL-121™) and MH-22A (mouse hepatocarcinoma, ECACC, cat. Nr. 96121721) were used.
(§7) HT-1080 and MH-22A cells were seeded in 96-well plates in Dulbecco's modified Eagle's (DMEM) medium containing 10% fetal bovine serum and 4 mM L-glutamine, without antibiotics, and cultivated for 72 h by exposure to different concentrations of compounds. Cell viability was measured using 3-(4,5-dimethylthiazol-2-yl)-2,5-diphenyltetrazolinium bromide (MTT). In brief, after incubating with compounds, the culture medium was removed and fresh medium with 0.2 mg/ml MTT was added in each well of the plate. After incubation (3 h, 37°C, 5% CO2), the medium with MTT was removed, and 200 μl DMSO was added at once to each sample. The samples were tested at 540 nm on a Tecan Infinite M1000 multiplate reader. The IC50 was calculated using the program GraphPad Prism® 3.0.
(§8) For the CV assay, cells were stained with 0.05% crystal violet (Sigma-Aldrich) in 30% methanol for 20 minutes at room temperature. After incubation, the staining solution was removed. The cells were washed 4 times with water. For dye solubilization, 200 μl of a solubilizing solution (0.1 M citrate buffer, pH 4.2 in 50% ethanol; 1 : 1 v/v) was added. The absorbance of the solution was measured using a Tecan Infinite M1000 multiplate spectrophotometer at a wavelength of 570 nm [21].

[3] = test system: MH-22A (mouse hepatoma); test: Cytotoxicity, MTT assay, MH-22A; assay type: cell-based; details: Mus musculus, read-out: MH-22A IC50 (MTT)
Source text: as §1

[4] = test system: NIH3T3; test: in vitro; details: for LD50 (calculated, NIH3T3): mouse
Source text: (§2) Data from the in vitro tests were used for estimating the starting dose for acute oral systemic toxicity tests in the rodent. The in vivo starting dose is an estimated LD50 value calculated by inserting the in vitroIC50 value into a regression formula: log LD50 (mM/kg) = 0.439 log IC50 (mM) + 0.621 [23–25]. […] Using an alternative in vitro method allows the comparison between possibly toxic new compounds and selecting compounds for further study vastly reducing the number of animal experiments.
(§3) Additionally, the compound influence on “normal” mouse fibroblasts (NIH3T3) was estimated for the studies of structure-activity relationships and exploration of the effect of substituents.

[5] = test system: MH-22A (mouse hepatoma); test: Cytotoxicity, crystal violet (CV) assay, MH-22A; assay type: cell-based; details: Mus musculus, read-out: MH-22A IC50 (CV)
Procedure: (§4) After incubation, the staining solution was removed. The cells were washed 4 times with water.

[6] = test system: NIH3T3 (mouse embryonic fibroblast); test: Basal cytotoxicity test, Neutral Red Uptake (NRU) assay; details: for IC50: Mus musculus
[7] = Cytotoxicity, crystal violet (CV) assay, HT-1080; details: human, HT-1080 cells (fibrosarcoma)
Procedure: as §5, §6, §7, §8

[8] = in vitro; assay type: cell-based; details: human and mouse; summarises both cell lines, CV and MTT; read-out: cytotoxicity on cancer cell lines HT-1080 and MH-22A
Procedure: as §4

[9] = Electrochemical oxidation potentials, cyclic voltammetry; assay type: physicochemical; details: glassy carbon electrode, dry acetonitrile; for Oxidation potential E^ox: Table 4, vs Ag/Ag+, 0.1 M TBABF4, tested as perchlorates; for electrooxidation potential: cyclic voltammetry
Procedure: A stationary glassy carbon disk electrode (d = 0.5 mm) served as the working electrode, while the counterelectrode was a Pt wire. The oxidation potentials were measured relative to a Ag/Ag^+ reference electrode. Acetonitrile was dried over P2O5 and distilled; the distillate was stored over CaH2 and redistilled just before use. Recrystallized tetrabutylammonium tetrafluoroborate (TBABF4) was used as a supporting electrolyte at 0.1 M concentration.
The electrochemical oxidation of the selected compounds studied in this work was performed by cyclic voltammetry on a stationary glassy carbon electrode in dry acetonitrile; the data is presented in Table 4. The perchlorates of the tested amphiphiles were obtained from the corresponding bromides by treating their abs. MeOH solutions with excess of conc. HClO4 according to the procedure elaborated by Turovska et al..

[10] = in vitro; details: mouse, NIH3T3 LD50, Table 3; calculated from NIH3T3 IC50 by regression formula
Source text: as §2, §3

[11] = HT-1080, Table 1, 72 h exposure
[12] = NIH3T3, 24 h, read-out: NIH3T3 IC50 (NR)
[13] = NIH3T3, 24 h, read-out: NIH3T3 IC50 (NR), Table 1, 24 h exposure
[14] = HT-1080, Table 3, 72 h exposure
[15] = NIH3T3, 24 h, read-out: NIH3T3 IC50 (NR), Table 3, 24 h exposure

Row | Compound | IC50 [1, 11] [µg/mL] | IC50 [2] [µg/mL] | IC50 ([3]; Table 1, 72 h exposure) [µg/mL] | IC50 ([5]; Table 1, 72 h exposure) [µg/mL] | IC50 [6, 13] [µg/mL] | LD50 [10] [mg/kg] | IC50 ([5]; Table 3, 72 h exposure) [µg/mL] | IC50 [6, 15] [µg/mL] | other results
1 | CCCOCOC(=O)C1=C(C[n+]2ccccc2)NC(C[n+]2ccccc2)=C(C(=O)OCOCCC)C1c1ccccc1OC(F)F.[Br-].[Br-] [compound 7, 1,1'-((4-(2-(Difluoromethoxy)phenyl)-3,5-bis((propoxymethoxy)carbonyl)-1,4-dihydropyridine-2,6-diyl)bis(methylene))bis(pyridin-1-ium) dibromide] | > 100 | > 100 | > 100 | > 100 |  |  |  |  | LD50 (calculated, NIH3T3) [4]: > 2000 mg/kg; IC50 [6, 12]: > 1000 µg/mL
2 | CCOC(=O)C1=C(C[n+]2ccccc2)NC(C[n+]2ccccc2)=C(C(=O)OCC)C1C(=O)OC.[Br-].[Br-] [compound 8, 1,1'-((3,5-Bis(ethoxycarbonyl)-4-(methoxycarbonyl)-1,4-dihydropyridine-2,6-diyl)-bis(methylene))bis(pyridin-1-ium) dibromide] | > 100 | > 100 | > 100 | > 100 |  |  |  |  | LD50 (calculated, NIH3T3) [4]: > 2000 mg/kg; IC50 [6, 12]: > 1000 µg/mL
3 | CCCCCCCCCCCCOC(=O)C1=C(C[n+]2ccccc2)NC(C[n+]2ccccc2)=C(C(=O)OCCCCCCCCCCCC)C1c1ccccc1 [compound 11, 1,1'-((3,5-Bis((dodecyloxy)carbonyl)-4-phenyl-1,4-dihydropyridine-2,6-diyl)bis(methylene))bis(pyridin-1-ium) ditetrafluoroborate] | 28 ± 9 | 31 ± 4 | 30 ± 9 | 30 ± 6 | 47 ± 8 |  |  |  | IC50 at 72 h [7]: ~30 µg/mL
4 | CCCCCCCCCCCCOC(=O)C1=C(C[N+](C)(C)C2CCCCC2)NC(C[N+](C)(C)C2CCCCC2)=C(C(=O)OCCCCCCCCCCCC)C1c1ccccc1.[O-][Cl+3]([O-])([O-])[O-].[O-][Cl+3]([O-])([O-])[O-] [compound 17, N,N'-((3,5-Bis((dodecyloxy)carbonyl)-4-phenyl-1,4-dihydropyridine-2,6-diyl)bis(methylene))bis(N,N-dimethylcyclohexanaminium) diperchlorate] | 23 ± 3 | 35 ± 9 | 35 ± 9 | 54 ± 16 | 59 ± 12 |  |  |  | IC50 [8]: 23 to 54 µg/mL
5 | CCCCCCCCCCCCOC(=O)C1=C(C[n+]2ccccc2)NC(C[n+]2ccccc2)=C(C(=O)OCCCCC(F)(F)C(F)(F)C(F)(F)C(F)(F)C(F)(F)C(F)(F)C(F)(F)C(F)(F)F)C1c1ccccc1 (stereo not drawn) [compound 23, Dodecyl 5,5,6,6,7,7,8,8,9,9,10,10,11,11,12,12,12-heptadecafluorododecyl 1,4-dihydro-2,6-dimethyl-4-phenylpyridine-3,5-dicarboxylate-2,6-dipyridinium dibromide] | 47 ± 8 | 50 ± 6 | 75 ± 11 | 47 ± 2 | 477 ± 25 |  |  |  | Oxidation potential E^ox [9]: 1.70 V; electrooxidation potential [9]: 1.69–1.70 V; IC50 [8]: 47 to 75 µg/mL
6 | O=C(OCCCCC(F)(F)C(F)(F)C(F)(F)C(F)(F)C(F)(F)C(F)(F)C(F)(F)C(F)(F)F)C1=C(C[n+]2ccccc2)NC(C[n+]2ccccc2)=C(C(=O)OCCCCC(F)(F)C(F)(F)C(F)(F)C(F)(F)C(F)(F)C(F)(F)C(F)(F)C(F)(F)F)C1c1ccccc1 [compound 24, Bis(5,5,6,6,7,7,8,8,9,9,10,10,11,11,12,12,12-heptadecafluorododecyl) 1,4-dihydro-2,6-dimethyl-4-phenylpyridine-3,5-dicarboxylate-2,6-dipyridinium bromide] | 100 ± 9 | 100 ± 11 | > 100 | > 100 | > 1000 |  |  |  | Oxidation potential E^ox [9]: 1.69 V; electrooxidation potential [9]: 1.69–1.70 V; IC50 [8]: ~100 µg/mL
7 | CCCCCCCCCCCCOC(=O)C1=C(C[n+]2ccccc2)NC(C[n+]2ccccc2)=C(C(=O)OCCCCCCCCCCCC)C1c1ccc(C2C(C(=O)OCCCCCCCCCCCC)=C(C[n+]3ccccc3)NC(C[n+]3ccccc3)=C2C(=O)OCCCCCCCCCCCC)cc1.[Br-].[Br-].[Br-].[Br-] [compound 26, 1,1',1'',1'''-((1,4-Phenylenebis(3,5-bis((dodecyloxy)carbonyl)-1,4-dihydropyridine-4,2,6-triyl))tetrakis(methylene))tetrakis(pyridin-1-ium) tetrabromide] |  | 12 ± 4 |  |  |  |  |  |  | IC50 ([1]; HT-1080, 72 h): 14 ± 2 µg/mL; IC50 at 72 h [8]: 12 to 27 µg/mL; IC50 ([3]; 72 h): 21 ± 4 µg/mL; IC50 ([5]; 72 h): 27 ± 6 µg/mL; IC50 [6, 12]: 717 ± 56 µg/mL
8 | O=C1CC(c2ccccc2)C(C(=O)OCCCCC(F)(F)C(F)(F)C(F)(F)C(F)(F)C(F)(F)C(F)(F)C(F)(F)C(F)(F)F)=C([P+](c2ccccc2)(c2ccccc2)c2ccccc2)N1.[Br-] (stereo not drawn) [compound 30, (3-(((5,5,6,6,7,7,8,8,9,9,10,10,11,11,12,12,12-Heptadecafluorododecyl)oxy)carbonyl)-6-oxo-4-phenyl-1,4,5,6-tetrahydropyridin-2-yl)triphenylphosphonium bromide] |  | 10 ± 2 |  |  |  |  |  |  | IC50 ([1]; HT-1080, Table 2, 72 h exposure): 9 ± 2 µg/mL; IC50 ([3]; Table 2, 72 h exposure): 39 ± 5 µg/mL; times less cytotoxic than dihydropyridone 31 in the NIH3T3 cells ([4]; from LD50 1779 mg/kg versus 604 mg/kg): about 3 times; IC50 ([5]; Table 2, 72 h exposure): 30 ± 11 µg/mL; IC50 ([6]; NIH3T3, 24 h, read-out: NIH3T3 IC50 (NR), Table 2, 24 h exposure): 127 ± 11 µg/mL
9 | CCCCCCCCCCCCCCCCOC(=O)/C=C(\N)C[N+](C)(C)C1CCCCC1 [compound 39, (Z,E)-N-(2-Amino-4-(hexadecyloxy)-4-oxobut-2-en-1-yl)-N,N-dimethylcyclohexanaminium chloride] |  | 0.35 ± 0.06 |  |  |  | 97 | 1 ± 0.6 | 0.7 ± 0.1 | IC50 [1, 14]: 0.5 ± 0.1 µg/mL; IC50 ([3]; Table 3, 72 h exposure): 0.2 ± 0.06 µg/mL
10 | CCCCCCCCCCCCCCCCOC(=O)/C=C(\N)C[N+](C)(C)CCCCCCCCCCCC [compound 44, (Z,E)-N-(2-Amino-4-(hexadecyloxy)-4-oxobut-2-en-1-yl)-N,N-dimethyldodecan-1-aminium bromide] |  | 3 ± 0.4 |  |  |  |  | 25 ± 3 |  | Oxidation potential E^ox [9]: 1.24 V; electrooxidation potential [9]: 1.24 V; IC50 [1, 14]: 3 ± 0.3 µg/mL; IC50 ([3]; Table 3, 72 h exposure): 28 ± 6 µg/mL; NIH3T3 LD50 ([4]; Table 3, calculated from NIH3T3 IC50 by regression formula): 697 mg/kg; IC50 ([6]; NIH3T3, read-out: IC50 in NIH3T3 cell lines): ~30 µg/mL; NIH3T3 IC50 (NR) ([6]; Table 3, 24 h exposure): 31 ± 8 µg/mL
11 | CCCCCCCCCCCCCCCCOC(=O)/C=C(\N)C[N+](C)(C)CCCCCCCCCCCC [compound 45, (Z,E)-N-(2-Amino-4-(hexadecyloxy)-4-oxobut-2-en-1-yl)-N,N-dimethyldodecan-1-aminium chloride] |  |  |  |  |  | 573 |  | 25 ± 9 | IC50 in NIH3T3 cell lines [6]: around 30 μg/ml
12 | CCCCCCCCCCCCOC(=O)/C=C(\N)C[n+]1ccccc1 [compound 47, (Z,E)-1-(2-Amino-4-(dodecyloxy)-4-oxobut-2-en-1-yl)pyridin-1-ium iodide] |  | 3 ± 0.4 |  |  |  | 403 | 2 ± 0.1 | 14 ± 9 | 
13 | CCCCCCCCCCCC[N+](C)(C)C/C(N)=C/C(=O)OCCCCCCCCCC [compound 48, (Z,E)-N-(2-Amino-4-(decyloxy)-4-oxobut-2-en-1-yl)-N,N-dimethyldodecan-1-aminium chloride] |  | 3 ± 0.4 |  |  |  | 485 | 2 ± 0.2 | 17 ± 3 | 
